The numbers were not newly measured in patent publication US7098367B2, “Process for the preparation of alkylene glycols” (Saudi Basic Industries Corporation, priority 2004, dated 2006), which cites them from elsewhere.

For the data set the following is noted: value may be measured experimentally, taken from references or estimated.
One may read the pKa as the negative logarithm of the acid dissociation constant. For the molecule `CN(C)c1ccccc1` [Comparative 1, Dimethylaniline, reference compound], the pKa is reported as 5.07.

Consider `NC(=O)NC12CC3CC(CC(C3)C1)C2` [Comparative 3, N-(1-adamantyl)urea, reference compound], for which the pKa is reported as 0.18.

`NCCN` [Example 1, Ethylenediamine (EDA)]: the pKa is given as 9.95.

For the molecule `C1CCCNCC1` [Example 3, Hexamethyleneimine], the pKa is given as 10.

For `C1CN2CCN1CC2` [Example 5, 1,4-diazabicyclo[2,2,2]octane (DABCO)], the pKa is listed as 8.82.

For the molecule `CN(C)CCN(C)C` [Example 12, Tetramethylethylenediamine (TMEDA)], the pKa was 10.72.
